Data: patent US9234000B2, “Benzylamine derivatives as inhibitors of plasma kallikrein” (KalVista Pharmaceuticals Limited, priority 2011, dated 2016)
pIC50: −log10 of the molar value. Read-outs that look alike come from different tables or passages of the source.

Key:
[1] = biological target: Human plasma kallikrein (Homo sapiens (Human), UniProt P03952); test: Determination of the IC50 for plasma kallikrein; assay type: biochemical; conditions: 37° C., read-out: IC50 (human PKal)
Procedure: Determination of the IC50 for Plasma Kallikrein
(§1) Plasma kallikrein inhibitory activity in vitro was determined using standard published methods (see e.g. Johansen et al., Int. J. Tiss. Reac. 1986, 8, 185; Shori et al., Biochem. Pharmacol., 1992, 43, 1209; Stiirzebecher et al., Biol. Chem. Hoppe-Seyler, 1992, 373, 1025). Human plasma kallikrein (Protogen) was incubated at 37° C. with the fluorogenic substrate H-DPro-Phe-Arg-AFC and various concentrations of the test compound. Residual enzyme activity (initial rate of reaction) was determined by measuring the change in optical absorbance at 410 nm and the IC50 value for the test compound was determined.

[2] = biological target: Human KLK1 (Homo sapiens (Human), UniProt P06870); test: Determination of the IC50 for KLK1; assay type: biochemical; conditions: Human KLK1, 37° C., substrate H-DVal-Leu-Arg-AFC
Procedure: Determination of the IC50 for KLK1
as §1, with “KLK1” for “Plasma kallikrein”, “Stürzebecher” for “Stiirzebecher”, “KLK1 (Callbiochem)” for “plasma kallikrein (Protogen)”, “H-DVal-Leu-Arg-AFC” for “H-DPro-Phe-Arg-AFC”

[3] = fluorogenic substrate H-DPro-Phe-Arg-AFC

Chain of Human KLK1 (P06870 25-262): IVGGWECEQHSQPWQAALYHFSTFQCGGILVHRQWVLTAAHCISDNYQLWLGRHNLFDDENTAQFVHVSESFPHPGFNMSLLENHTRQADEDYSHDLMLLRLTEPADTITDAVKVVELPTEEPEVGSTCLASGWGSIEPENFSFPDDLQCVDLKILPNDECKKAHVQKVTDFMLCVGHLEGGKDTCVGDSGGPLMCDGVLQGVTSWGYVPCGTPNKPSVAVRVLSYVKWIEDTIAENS
Chain of Human plasma kallikrein (P03952 391-638): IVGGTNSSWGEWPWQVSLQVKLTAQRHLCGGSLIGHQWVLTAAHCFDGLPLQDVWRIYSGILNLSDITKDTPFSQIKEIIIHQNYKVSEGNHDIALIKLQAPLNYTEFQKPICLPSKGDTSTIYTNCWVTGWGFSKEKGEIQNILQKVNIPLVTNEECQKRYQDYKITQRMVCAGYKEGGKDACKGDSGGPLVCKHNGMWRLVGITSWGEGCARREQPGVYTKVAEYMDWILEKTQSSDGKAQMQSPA
Chain of Human plasma kallikrein (P03952 20-390 partner): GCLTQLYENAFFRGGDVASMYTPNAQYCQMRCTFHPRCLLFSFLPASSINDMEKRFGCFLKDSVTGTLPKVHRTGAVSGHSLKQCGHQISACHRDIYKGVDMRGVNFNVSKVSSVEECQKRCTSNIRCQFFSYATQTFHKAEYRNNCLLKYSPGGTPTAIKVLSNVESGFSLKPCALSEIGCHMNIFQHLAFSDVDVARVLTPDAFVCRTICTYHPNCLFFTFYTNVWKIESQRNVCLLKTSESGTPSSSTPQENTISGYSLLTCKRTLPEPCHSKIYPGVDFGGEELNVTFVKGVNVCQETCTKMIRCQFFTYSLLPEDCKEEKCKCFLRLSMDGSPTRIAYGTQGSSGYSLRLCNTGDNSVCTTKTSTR

pIC50 [1, 3]	pIC50 ([2]; Table 12)	pIC50 ([1]; substrate H-DPro-Phe-Arg-AFC)	pIC50 ([2]; Table 13)	Compound
5.37	5.30	–	–	NCc1ccc(CNC(=O)[C@H](Cc2ccccc2)NC(=O)[C@@H](CC2CCCCC2)NCC(N)=O)cc1 [Example 50, (R)-N-[(S)-1-(4-Aminomethyl-benzylcarbamoyl)-2-phenyl-ethyl]-2-(carbamoylmethyl-amino)-3-cyclohexyl-propionamide]
–	–	6.80	< 5.00	CCOc1ccc(C[C@@H](NC(=O)c2ccc(C)nc2)C(=O)N[C@@H](Cc2ccccc2)C(=O)NCc2ccc(CN)cc2)cc1 [Example 104, N-[(R)-1-[(S)-1-(4-Aminomethyl-benzylcarbamoyl)-2-phenyl-ethylcarbamoyl]-2-(4-ethoxy-phenyl)-ethyl]-6-methyl-nicotinamide]
–	–	5.94	< 5.00	NCc1ccc(CNC(=O)[C@H](Cc2ccccc2)NC(=O)[C@@H](Cc2ccccc2)NC(=O)c2ccccc2)cc1 [Example 139, N-{(R)-1-[(S)-1-(4-Aminomethyl-benzylcarbamoyl)-2-phenyl-ethylcarbamoyl]-2-phenyl-ethyl}-benzamide]
–	–	6.24	5.29	CCOc1ccc(C[C@@H](NC(=O)CNC(=O)c2ccccc2)C(=O)N[C@@H](Cc2ccccc2)C(=O)NCc2ccc(CN)cc2)cc1 [Example 98, N-{[(R)-1-[(S)-1-(4-Aminomethyl-benzylcarbamoyl)-2-phenyl-ethylcarbamoyl]-2-(4-ethoxy-phenyl)-ethylcarbamoyl]-methyl}-benzamide]
–	–	6.03	< 5.00	CCOc1ccc(C[C@@H](NC(=O)c2ccccc2)C(=O)N[C@@H](Cc2ccc(C(F)(F)F)cc2)C(=O)NCc2ccc(CN)cc2)cc1 [Example 148, N-[(R)-1-[(S)-1-(4-Aminomethyl-benzylcarbamoyl)-2-(4-trifluoromethyl-phenyl)-ethylcarbamoyl]-2-(4-ethoxy-phenyl)-ethyl]-benzamide]
–	–	6.91	5.03	CCOc1ccc(C[C@@H](NC(=O)c2ccncc2)C(=O)N[C@@H](Cc2ccc(Cl)c(Cl)c2)C(=O)NCc2ccc(CN)cc2)cc1 [Example 171, N-[(R)-1-[(S)-1-(4-Aminomethyl-benzylcarbamoyl)-2-(3,4-dichloro-phenyl)-ethylcarbamoyl]-2-(4-ethoxy-phenyl)-ethyl]-isonicotinamide]
–	–	5.70	< 5.00	NCc1ccc(CNC(=O)[C@H](Cc2ccccc2)NC(=O)[C@@H](Cc2ccc(OCc3ccc(Cl)cc3)cc2)NC(=O)c2ccccc2)cc1 [Example 128, N-{(R)-1-[(S)-1-(4-Aminomethyl-benzylcarbamoyl)-2-phenyl-ethylcarbamoyl]-2-[4-(4-chloro-benzyloxy)-phenyl]-ethyl}-benzamide]
–	–	7.14	< 5.00	CCOc1ccc(C[C@@H](NC(=O)c2ccccc2)C(=O)N[C@@H](Cc2ccccc2F)C(=O)NCc2ccc(CN)cc2)cc1 [Example 180, N-[(R)-1-[(S)-1-(4-Aminomethyl-benzylcarbamoyl)-2-(2-fluoro-phenyl)-ethylcarbamoyl]-2-(4-ethoxy-phenyl)-ethyl]-benzamide]
–	–	5.00	< 5.00	CC(C)C[C@@H](NC(=O)c1ccccc1)C(=O)N[C@@H](Cc1ccccc1)C(=O)NCc1ccc(CN)cc1 [Example 133, N-{(R)-1-[(S)-1-(4-Aminomethyl-benzylcarbamoyl)-2-phenyl-ethylcarbamoyl]-3-methyl-butyl}-benzamide]
–	–	6.55	< 5.00	CCOc1ccc(C[C@@H](NC(=O)c2ccccc2)C(=O)N[C@@H](Cc2ccncc2)C(=O)NCc2ccc(CN)cc2)cc1 [Example 147, N-[(R)-1-[(S)-1-(4-Aminomethyl-benzylcarbamoyl)-2-pyridin-4-yl-ethylcarbamoyl]-2-(4-ethoxy-phenyl)-ethyl]-benzamide]
–	–	6.47	< 5.00	CCOc1ccc(C[C@@H](NC(=O)c2ccccc2)C(=O)N[C@@H](Cc2cccc(C(F)(F)F)c2)C(=O)NCc2ccc(CN)cc2)cc1 [Example 144, N-[(R)-1-[(S)-1-(4-Aminomethyl-benzylcarbamoyl)-2-(3-trifluoromethyl-phenyl)-ethylcarbamoyl]-2-(4-ethoxy-phenyl)-ethyl]-benzamide]
–	–	6.63	< 5.00	CCOc1ccc(C[C@@H](NC(=O)c2cc(F)nc(F)c2F)C(=O)N[C@@H](Cc2ccccc2)C(=O)NCc2ccc(CN)cc2)cc1 [Example 108, N-[(R)-1-[(S)-1-(4-Aminomethyl-benzylcarbamoyl)-2-phenyl-ethylcarbamoyl]-2-(4-ethoxy-phenyl)-ethyl]-2,3,6-trifluoro-isonicotinamide]
–	–	6.34	5.44	CCCCCC(=O)N[C@H](Cc1ccc(OCC)cc1)C(=O)N[C@@H](Cc1ccccc1)C(=O)NCc1ccc(CN)cc1 [Example 76, Hexanoic acid [(R)-1-[(S)-1-(4-aminomethyl-benzylcarbamoyl)-2-phenyl-ethylcarbamoyl]-2-(4-ethoxy-phenyl)-ethyl]-amide]
5.05	< 5.00	–	–	CC(C)C[C@@H](NCC(=O)O)C(=O)N[C@@H](Cc1ccccc1)C(=O)NCc1ccc(CN)cc1 [Example 28, {(R)-1-[(S)-1-(4-Aminomethyl-benzylcarbamoyl)-2-phenyl-ethylcarbamoyl]-3-methyl-butylamino}-acetic acid]
–	–	6.26	< 5.00	CCOc1ccc(C[C@@H](NC(=O)C2CC2)C(=O)N[C@@H](Cc2ccccc2)C(=O)NCc2ccc(CN)cc2)cc1 [Example 74, Cyclopropanecarboxylic acid [(R)-1-[(S)-1-(4-aminomethyl-benzylcarbamoyl)-2-phenyl-ethylcarbamoyl]-2-(4-ethoxy-phenyl)-ethyl]-amide]
–	–	6.51	< 5.00	CCOc1ccc(C[C@@H](NC(=O)c2cncc(OC)c2)C(=O)N[C@@H](Cc2ccccc2)C(=O)NCc2ccc(CN)cc2)cc1 [Example 121, N-[(R)-1-[(S)-1-(4-Aminomethyl-benzylcarbamoyl)-2-phenyl-ethylcarbamoyl]-2-(4-ethoxy-phenyl)-ethyl]-5-methoxy-nicotinamide]
–	–	6.81	< 5.00	CCOc1ccc(C[C@@H](NC(=O)CC(F)(F)F)C(=O)N[C@@H](Cc2ccccc2)C(=O)NCc2ccc(CN)cc2)cc1 [Example 109, N-[(R)-1-[(S)-1-(4-Aminomethyl-benzylcarbamoyl)-2-phenyl-ethylcarbamoyl]-2-(4-ethoxy-phenyl)-ethyl]-3,3,3-trifluoro-propionamide]
–	–	6.28	< 5.00	NCc1ccc(CNC(=O)[C@H](Cc2ccccc2)NC(=O)[C@@H](Cc2ccc(Cl)cc2)NC(=O)c2ccccc2)cc1 [Example 127, N-[(R)-1-[(S)-1-(4-Aminomethyl-benzylcarbamoyl)-2-phenyl-ethylcarbamoyl]-2-(4-chloro-phenyl)-ethyl]-benzamide]
5.92	< 5.00	–	–	COC(=O)CN[C@H](CC1CCCCC1)C(=O)N[C@@H](Cc1ccccc1)C(=O)NCc1ccc(CN)cc1 [Example 46, {(R)-1-[(S)-1-(4-Aminomethyl-benzylcarbamoyl)-2-phenyl-ethylcarbamoyl]-2-cyclohexyl-ethylamino}-acetic acid methyl ester]

Compound	pIC50 [1, 3]	pIC50 ([2]; Table 12)	pIC50 ([1]; substrate H-DPro-Phe-Arg-AFC)	pIC50 ([2]; Table 13)
CCC(=O)N[C@H](Cc1ccc(C(F)(F)F)cc1)C(=O)N[C@@H](Cc1ccc(Cl)c(Cl)c1)C(=O)NCc1ccc(CN)cc1 [Example 19]	5.00	< 5.00	–	–
